How the values were obtained:
HBV = assay: Efficacy for treatment of HBV infection in transgenic HBV mice (liver HBV DNA, serum HBeAg/HBsAg); format: in vivo; settings: per os, qd x 14 d, dosage 'high'; for liver HBV DNA levels: Southern blot hybridization and semi-quantitative PCR, compared to vehicle and ADV; for serum levels of HBeAg / serum levels of HBsAg: relative to vehicle values
Description: (§1) The goal of this study was to evaluate the efficacy of exemplary compounds for the treatment of HBV infection in transgenic mice. Homozygous […] transgenic HBV mice (21.6±2.8 g) originally obtained from the laboratory of Dr. Frank Chisari (Scripps Research Institute, LaJolla, Calif.) and derived from founder 1.3.32 were used in this study. Female and male HBV transgenic mice were block-randomized to the treatment groups (Table 1). Compounds of Formula (Ie) and Formula (If) were administered at 0.1 mL/30-gram mouse by oral gavage. Adefovir dipivoxil (ADV) was prepared as a solution of 2 mg/mL in 0.025 M sodium citrate, wherein 0.1 mL was administered by oral gavage (per os, p.o.) per 30 g mouse for a dosage of […].
(§2) Treatment was initiated at day 1. After the last treatment on day 14, necropsy was performed to obtain tissues to assay liver HBV DNA and sera for HBV antigens HBeAg and HBsAg. Weights were obtained on days −1, 1 (day of treatment initiation), 3, 7, and 14. Data were analyzed by one-way analysis of variance. Two animals died due to oral gavage treatment at day 7, one in group 1 and another in group 3. FIGS. 2A-2B show the effect of Formula (Ie) and Formula (If) on liver HBV DNA levels using Southern blot hybridization (FIG. 2A) and semi-quantitative PCR (FIG. 2B) as compared to vehicle and ADV.

[1] = Whole body weight change in transgenic HBV mice; format: in vivo; settings: per os, qd x 14 d, dosage 'high'; relative to vehicle values
Description: as §1, §2

## CO[C@H]1C(O[P@](=O)(OC[C@H]2O[C@@H](n3cnc4c(N)ncnc43)CC2O)SCOC(=O)OC(C)C)[C@@H](CO)O[C@H]1n1ccc(=O)[nH]c1=O (some centres unmarked) [Formula (Ie)]
HBV
  liver HBV DNA levels: lowered HBV DNA levels in the liver
  serum levels of HBeAg: Neither Formula (Ie) or Formula (If) had an effect
  serum levels of HBsAg: Neither Formula (Ie) or Formula (If) had an effect
[1]
  whole body weight change: Neither Formula (Ie) or Formula (If) had an effect

## CO[C@H]1C(O[P@@](=O)(OC[C@H]2O[C@@H](n3cnc4c(N)ncnc43)CC2O)SCOC(=O)OC(C)C)[C@@H](CO)O[C@H]1n1ccc(=O)[nH]c1=O (some centres unmarked) [Formula (If)]
HBV
  liver HBV DNA levels: lowered HBV DNA levels in the liver
  serum levels of HBeAg: Neither Formula (Ie) or Formula (If) had an effect
  serum levels of HBsAg: Neither Formula (Ie) or Formula (If) had an effect
[1]
  whole body weight change: Neither Formula (Ie) or Formula (If) had an effect
